Data as given in paper PMC8533299, “Synthesis, In Silico Study, and Anti-Cancer Activity of Thiosemicarbazone Derivatives” (Biomedicines, 2021).
Values after ≈ are worked out from the molar mass of the structure shown. Values joined by “and” are separate entries in the source; they are usually repeats but may differ in a detail not shown here. Equal entries are not always repeated.

Legend:
B16-F0 (Mouse melanoma) = test: MTT test on B16-F0 cells; format: cell-based
Protocol: (§1) The in vitro anticancer activities of the synthesized compounds were conducted using different cancerous and non-cancerous cell lines viz B16-F0 (Mouse melanoma), mouse Ehrlich Ascites Carcinoma (EAC), MCF-7 (Human breast cancer), MCF-10A (Human breast epithelial cells), and NIH/3T3 (Mouse fibroblast cells). All cell lines were procured from the National Centre for Cell Science, Pune, India. The procured cells were cultured in a six-well culture plate with Dulbecco’s Modified Eagle’s Medium (DMEM) supplemented with 10% fetal bovine serum in a humid CO2 incubator with 5% carbon dioxide at 37 °C.
(§2) The anti-cancer effect and cytotoxicity of both 3-MBTSc and 4-NBTSc compounds were evaluated against different cancerous (MCF-7, EAC, B16-F0 cells) and noncancerous cells (MCF-10A, NIH-3T3 cells) using MTT test. In brief, the stock solutions of both the tested compounds were prepared by dissolving 1 mg of each compound in 1 mL of DMSO separately. Then, four different concentrations (5, 10, 12, and 20 µg/mL) of both compounds were used during the test along with the negative control. Also, 10 μg/mL of doxorubicin (Dox) was used as the positive control during the experiment. Both untreated and treated cells were incubated for next 24 and 48 h. Then, all the steps during the whole experiment were carried out by our earlier reported procedure. Later, the absorbance values were measured by an ELISA reader (Biorad, Hercules, CA, USA) at 570 nm wavelength using secondary wavelength as a reference at 620 nm and the percentages of cell viability was calculated using the following formula [59, 60, 61]. Cell viability (%)= Mean absorbance of treated cells/Mean absorbance of untreated cells × 100
(§3) Based on the cell viability data, the IC50 values of both compounds were calculated on different cancer cells by plotting their corresponding dose-responsive graphs.
(§4) The obtained data were statistically analyzed. The descriptive analysis was done and the IC50 values were calculated by fitting the sigmoidal dose responsive graph using GraphPad Prism (GraphPad Software, Inc., La Jolla, CA, USA). […]

[1] = system: mouse Ehrlich Ascites Carcinoma (EAC); test: MTT test on EAC cells; format: cell-based
Protocol: as §1, §2, §3, §4

[2] = MTT cytotoxicity test on MCF-10A cells; format: cell-based, Human; settings: human, MCF-10A breast epithelial cells
Protocol: as §1, §2

[3] = system: MCF-10A (Human breast epithelial cells); test: MTT cytotoxicity test on MCF-10A cells; format: cell-based; settings: 48 h
Protocol: as §1, §2

MCF-7, EAC, B16-F0 cells = test: MTT test, cancer cell lines overall; format: cell-based; settings: over the cell lines tested; read-out: IC50 (range over treated cells)
Protocol: as §1
The anti-cancer effect and cytotoxicity of both 3-MBTSc and 4-NBTSc compounds were evaluated against different cancerous (MCF-7, EAC, B16-F0 cells) and noncancerous cells (MCF-10A, NIH-3T3 cells) using MTT test. […] Later, the absorbance values were measured by an ELISA reader (Biorad, Hercules, CA, USA) at 570 nm wavelength using secondary wavelength as a reference at 620 nm and the percentages of cell viability was calculated using the following formula [59, 60, 61]. Cell viability (%)= Mean absorbance of treated cells/Mean absorbance of untreated cells × 100
as §3
The obtained data were statistically analyzed. […]

[4] = system: gene expression in EAC cells; test: RT-qPCR gene expression in EAC cells; format: cell-based, mouse
Protocol: (§5) Total mRNA was isolated and extracted by Trizol reagent as described in an earlier method. RevertAid First Strand cDNA synthesis kit (Thermo Fisher Scientific, Waltham, MA, USA) was used to synthesize cDNA in a total reaction volume of 20 μL containing oligo-dT primers, RiboLock RNase inhibitor, and reverse transcriptase. Gene-specific primers were used to amplify cDNAs in RT-qPCR machine (Applied Biosystems, Waltham, MA, USA).

[5] = system: gene expression in B16-F0 melanoma cells; test: RT-qPCR gene expression in B16-F0 cells; format: cell-based, Mouse
Protocol: as §5

[6] = EAC cells treated, GAPDH housekeeping gene
[7] = EAC cells, difference of RQ values
[8] = B16-F0 cells treated, GAPDH housekeeping gene
[9] = B16-F0 cells, difference of RQ values

## COc1cccc(C=NNC(N)=S)c1 [3-MBTSc, 3-Methoxybenzaldehyde thiosemicarbazone]
B16-F0 (Mouse melanoma); B16-F0 cell line, MTT assay
  inhibition of cell growth: 50.42%
B16-F0 (Mouse melanoma); Mus musculus, B16F0, B16-F0 cells, MTT, till 48 h
  IC50: 2.904 ± 0.013 µg/mL (≈ 13.9 µM)
[1]; EAC cell line, MTT assay
  inhibition of cell growth: 50.31%
[1]; Mus musculus, Ehrlich, EAC cells, MTT, till 48 h
  IC50: 3.355 ± 0.012 µg/mL (≈ 16 µM)
[2]
  viability at 48 h: > 80%
[3]
  toxicity: less than 20%
MCF-7, EAC, B16-F0 cells
  IC50: 2.82 to 14.2 µg/mL (≈ 13.5 to 68.1 µM)
[4]; [6]
  BCl2 Treated (RQ value): 7.195 ± 0.021
  BRCA1 Treated (RQ value): 4.305 ± 0.021
  Bax Treated (RQ value): 5.195 ± 0.021
  Caspase-3 Treated (RQ value): 3.095 ± 0.035
  Dmp1 Treated (RQ value): 6.9 ± 0.028
  Fos Treated (RQ value): 4.22 ± 0.014
  MTS 1 Treated (RQ value): 1.1 ± 0.028
  Mdm2 Treated (RQ value): 4.145 ± 0.035
  PKC Treated (RQ value): 7.105 ± 0.021
  PTEN Treated (RQ value): 4.205 ± 0.035
  RAS Treated (RQ value): 3.215 ± 0.021
  p19 Arf Treated (RQ value): 4.73 ± 0.028
  p21 Treated (RQ value): 5.19 ± 0.028
  pRB Treated (RQ value): 3.575 ± 0.021
[4]; [7]
  BCl2 Fold Change (EAC treated-EAC untreated): 4.105 fold
  BRCA1 Fold Change (EAC treated-EAC untreated): 2.245 fold
  Bax Fold Change (EAC treated-EAC untreated): 2.145 fold
  Caspase-3 Fold Change (EAC treated-EAC untreated): 0.195 fold
  Dmp1 Fold Change (EAC treated-EAC untreated): 4.75 fold
  Fos Fold Change (EAC treated-EAC untreated): -3.92 fold
  MTS 1 Fold Change (EAC treated-EAC untreated): -0.805 fold
  Mdm2 Fold Change (EAC treated-EAC untreated): -1.06 fold
  PKC Fold Change (EAC treated-EAC untreated): -3.03 fold
  PTEN Fold Change (EAC treated-EAC untreated): 2.975 fold
  RAS Fold Change (EAC treated-EAC untreated): -3.725 fold
  p19 Arf Fold Change (EAC treated-EAC untreated): 1.98 fold
  p21 Fold Change (EAC treated-EAC untreated): 4.195 fold
  p53 Fold Change (EAC treated-EAC untreated): 2.1 fold
  pRB Fold Change (EAC treated-EAC untreated): 1.67 fold
[5]; [8]
  BCl2 Treated (RQ value): 2.14 ± 0.028
  BRCA1 Treated (RQ value): 1.14 ± 0.028
  Bax Treated (RQ value): 3.095 ± 0.021
  Caspase-3 Treated (RQ value): 6.105 ± 0.021
  Dmp1 Treated (RQ value): 5.19 ± 0.028
  Fos Treated (RQ value): 3.135 ± 0.021
  MTS 1 Treated (RQ value): 6.14 ± 0.042
  Mdm2 Treated (RQ value): 5.105 ± 0.021
  PKC Treated (RQ value): 5.13 ± 0.028
  PTEN Treated (RQ value): 4.94 ± 0.028
  RAS Treated (RQ value): 4.16 ± 0.028
  p19 Arf Treated (RQ value): 5.125 ± 0.021
  p21 Treated (RQ value): 5.115 ± 0.021
  p53 Treated (RQ value): 5.185 ± 0.035
  pRB Treated (RQ value): 1.105 ± 0.007
[5]; [9]
  BCl2 Fold Change (B16-F0 treated-B16-F0 untreated): 0.050 fold
  BRCA1 Fold Change (B16-F0 treated-B16-F0 untreated): -0.660 fold
  Bax Fold Change (B16-F0 treated-B16-F0 untreated): 0.360 fold
  Caspase-3 Fold Change (B16-F0 treated-B16-F0 untreated): 3.505 fold and 3.50 fold
  Dmp1 Fold Change (B16-F0 treated-B16-F0 untreated): 2.700 fold
  MTS 1 Fold Change (B16-F0 treated-B16-F0 untreated): 4.205 fold
  Mdm2 Fold Change (B16-F0 treated-B16-F0 untreated): -2.135 fold
  PTEN Fold Change (B16-F0 treated-B16-F0 untreated): 2.795 fold
  p19 Arf Fold Change (B16-F0 treated-B16-F0 untreated): 3.790 fold
  p21 Fold Change (B16-F0 treated-B16-F0 untreated): 2.925 fold
  p53 Fold Change (B16-F0 treated-B16-F0 untreated): 3.025 fold
  pRB Fold Change (B16-F0 treated-B16-F0 untreated): -0.495 fold
